Test results: ChEMBL document CHEMBL1201862, “PubChem BioAssay data set” (2004)
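Five concentrations, 48 hours, 96-well plates. The concentration for 50% growth inhibition is given as GI50.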 Activity calls are given as the source filed them. Rule as the data show it: active = GI50 up to about 1.1 µM and inactive = higher.

How the values were obtained:
Test in all cases: NCI anticancer screen, dose series, 48 h
[1] = system: A498
[2] = system: EKVX
[3] = system: HCT-116
[4] = system: HT-29
[5] = system: KM12
[6] = system: M14
[7] = system: MOLT-4
[8] = system: NCI-H226
[9] = system: NCI-H460
[10] = system: OVCAR-8
[11] = system: RXF 393
[12] = system: SK-MEL-2
[13] = system: SK-MEL-5
[14] = system: SNB-75
[15] = system: U-251
[16] = system: UACC-257
[17] = system: NCI-H522

## COc1ccc(C[C@H](N)C(=O)NC2C(CO)OC(n3cnc4c(N(C)C)ncnc43)C2O)cc1 (stereo partly drawn)
[1]
  GI50: 1.04 µM (active)
[2]
  GI50: 0.202 µM (active)
[3]
  GI50: 0.115 µM (active)
[4]
  GI50: 0.262 µM (active)
[5]
  GI50: 0.262 µM (active)
[6]
  GI50: 0.378 µM (active)
[7]
  GI50: 0.13 µM (active)
[8]
  GI50: 0.174 µM (active)
[9]
  GI50: 0.255 µM (active)
[10]
  GI50: 0.182 µM (active)
[11]
  GI50: 0.261 µM (active)
[12]
  GI50: 0.415 µM (active)
[13]
  GI50: 0.234 µM (active)
[14]
  GI50: 0.0807 µM (active)
[15]
  GI50: 0.0297 µM (active)
[16]
  GI50: 0.358 µM (active)

## O=C(O)c1cc(=O)c2[nH]c3ccccc3c2s1
[2]
  GI50: > 100 µM (inactive)
[5]
  GI50: > 100 µM (inactive)
[6]
  GI50: > 100 µM (inactive)
[7]
  GI50: > 100 µM (inactive)
[9]
  GI50: > 100 µM (inactive)
[17]
  GI50: > 100 µM (inactive)
[10]
  GI50: > 100 µM (inactive)
[11]
  GI50: > 100 µM (inactive)
[12]
  GI50: > 100 µM (inactive)
[13]
  GI50: > 100 µM (inactive)
[14]
  GI50: 41.4 µM (inactive)
[16]
  GI50: > 100 µM (inactive)

## CC(C)(C=O)CC(C#N)/C(=N\NC(N)=O)C(=O)Nc1ccccc1C(N)=O (stereo not drawn)
[1]
  GI50: > 100 µM (inactive)
[2]
  GI50: > 100 µM (inactive)
[3]
  GI50: > 100 µM (inactive)
[4]
  GI50: > 100 µM (inactive)
[5]
  GI50: > 100 µM (inactive)
[6]
  GI50: > 100 µM (inactive)
[7]
  GI50: > 100 µM (inactive)
[8]
  GI50: > 100 µM (inactive)
[9]
  GI50: > 100 µM (inactive)
[17]
  GI50: > 100 µM (inactive)
[10]
  GI50: > 100 µM (inactive)
[12]
  GI50: > 100 µM (inactive)
[13]
  GI50: > 100 µM (inactive)
[15]
  GI50: > 100 µM (inactive)
[16]
  GI50: > 100 µM (inactive)

## O=C1OC(c2ccccc2)=N/C1=C/NC(CO)C(=O)O (stereo not drawn)
[1]
  GI50: > 100 µM (inactive)
[2]
  GI50: > 100 µM (inactive)
[3]
  GI50: > 100 µM (inactive)
[4]
  GI50: > 100 µM (inactive)
[5]
  GI50: > 100 µM (inactive)
[6]
  GI50: > 100 µM (inactive)
[8]
  GI50: > 100 µM (inactive)
[9]
  GI50: > 100 µM (inactive)
[17]
  GI50: > 100 µM (inactive)
[10]
  GI50: > 100 µM (inactive)
[11]
  GI50: > 100 µM (inactive)
[12]
  GI50: > 100 µM (inactive)
[13]
  GI50: > 100 µM (inactive)
[14]
  GI50: > 100 µM (inactive)
[15]
  GI50: > 100 µM (inactive)
[16]
  GI50: > 100 µM (inactive)

## COc1ccc2nccc(C3=CCC4CCN(C(=O)c5ccccc5)C3C4)c2c1 (stereo not drawn)
[1]
  GI50: > 100 µM (inactive)
[2]
  GI50: > 100 µM (inactive)
[3]
  GI50: > 100 µM (inactive)
[4]
  GI50: > 100 µM (inactive)
[5]
  GI50: > 100 µM (inactive)
[6]
  GI50: > 100 µM (inactive)
[7]
  GI50: 44.9 µM (inactive)
[9]
  GI50: > 100 µM (inactive)
[17]
  GI50: > 100 µM (inactive)
[10]
  GI50: > 100 µM (inactive)
[11]
  GI50: > 100 µM (inactive)
[12]
  GI50: > 100 µM (inactive)
[13]
  GI50: 93.3 µM (inactive)
[14]
  GI50: 93.5 µM (inactive)
[15]
  GI50: > 100 µM (inactive)
[16]
  GI50: > 100 µM (inactive)

## COc1ccc2[nH]c3c(C)c4c(c(C)c3c2c1)CN(C)CC4
[1]
  GI50: 17.9 µM (inactive)
[3]
  GI50: 3.17 µM (inactive)
[4]
  GI50: 6.47 µM (inactive)
[5]
  GI50: 13.9 µM (inactive)
[6]
  GI50: 16.3 µM (inactive)
[7]
  GI50: 18.5 µM (inactive)
[8]
  GI50: 15.8 µM (inactive)
[9]
  GI50: 11.6 µM (inactive)
[17]
  GI50: 18 µM (inactive)
[10]
  GI50: 11.9 µM (inactive)
[11]
  GI50: 19.3 µM (inactive)
[12]
  GI50: 17.2 µM (inactive)
[13]
  GI50: 17.5 µM (inactive)
[14]
  GI50: 18 µM (inactive)
[15]
  GI50: 17.7 µM (inactive)
[16]
  GI50: 17.7 µM (inactive)

## CC#CC#C/C=C1\C=CC2(OC=CC2O)O1 (stereo not drawn)
[2]
  GI50: > 9.86 µM (inactive)
[3]
  GI50: 8.04 µM (inactive)
[4]
  GI50: 7.91 µM (inactive)
[5]
  GI50: 3.32 µM (inactive)
[6]
  GI50: > 17.8 µM (inactive)
[7]
  GI50: 10.5 µM (inactive)
[8]
  GI50: > 15.8 µM (inactive)
[9]
  GI50: > 23.3 µM (inactive)
[17]
  GI50: 5.65 µM (inactive)
[10]
  GI50: 14.3 µM (inactive)
[11]
  GI50: 8.55 µM (inactive)
[12]
  GI50: > 17.8 µM (inactive)
[13]
  GI50: > 12.9 µM (inactive)
[14]
  GI50: > 19.1 µM (inactive)
[15]
  GI50: > 20.7 µM (inactive)
[16]
  GI50: 16 µM (inactive)

## COc1ccc2[nH]c3c(c2c1)CCN(C)CC3
[1]
  GI50: > 100 µM (inactive)
[2]
  GI50: > 100 µM (inactive)
[3]
  GI50: > 100 µM (inactive)
[4]
  GI50: > 100 µM (inactive)
[5]
  GI50: > 100 µM (inactive)
[6]
  GI50: > 100 µM (inactive)
[7]
  GI50: > 100 µM (inactive)
[9]
  GI50: > 100 µM (inactive)
[10]
  GI50: > 100 µM (inactive)
[12]
  GI50: > 100 µM (inactive)
[13]
  GI50: > 100 µM (inactive)
[14]
  GI50: > 100 µM (inactive)
[15]
  GI50: > 100 µM (inactive)
[16]
  GI50: > 100 µM (inactive)

## Cc1cc2c3ccccc3n3c2c2c1OC1(C)CCC(C2C1)C3(C)C (stereo not drawn)
[3]
  GI50: > 25 µM (inactive)
[4]
  GI50: > 25 µM (inactive)
[5]
  GI50: > 25 µM (inactive)
[6]
  GI50: > 25 µM (inactive)
[7]
  GI50: > 25 µM (inactive)
[8]
  GI50: > 25 µM (inactive)
[9]
  GI50: > 25 µM (inactive)
[17]
  GI50: > 25 µM (inactive)
[10]
  GI50: > 25 µM (inactive)
[12]
  GI50: > 25 µM (inactive)
[13]
  GI50: > 25 µM (inactive)
[15]
  GI50: > 25 µM (inactive)
